Assays:
[1] = biological target: FGFR2 (Homo sapiens (Human), UniProt P21802); test: FGFR2 Biochemical Caliper Assay
Description: Compounds of the present invention were also tested in a FGFR2 Biochemical Caliper Assay. Compounds were prepared in 10 mM DMSO solution and serially diluted into 11 concentrations by 3-fold dilution. […] 5 uL of ATP solution (100 uM) was added to start the reaction and the plate was incubated for 90 minutes, then 70 uL of stopping buffer (0.5M EDTA) was added to terminate the reaction. Each well was analyzed using EZ reader.

[2] = system: SNU16 cells; test: SNU16 Cancer Cell Line Proliferation Assay; assay type: cell-based; conditions: Homo sapiens; SNU-16 cells
Method in brief: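 Proliferation read-out: CellTiter Glo chemiluminescence after 96 h compound exposure. Test compounds, serially diluted 3-fold over 11 points from a 10 mM DMSO stock, were added to SNU16 cells plated 24 h earlier at 37 degrees.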

FGFR2, sequence (P21802 22-821): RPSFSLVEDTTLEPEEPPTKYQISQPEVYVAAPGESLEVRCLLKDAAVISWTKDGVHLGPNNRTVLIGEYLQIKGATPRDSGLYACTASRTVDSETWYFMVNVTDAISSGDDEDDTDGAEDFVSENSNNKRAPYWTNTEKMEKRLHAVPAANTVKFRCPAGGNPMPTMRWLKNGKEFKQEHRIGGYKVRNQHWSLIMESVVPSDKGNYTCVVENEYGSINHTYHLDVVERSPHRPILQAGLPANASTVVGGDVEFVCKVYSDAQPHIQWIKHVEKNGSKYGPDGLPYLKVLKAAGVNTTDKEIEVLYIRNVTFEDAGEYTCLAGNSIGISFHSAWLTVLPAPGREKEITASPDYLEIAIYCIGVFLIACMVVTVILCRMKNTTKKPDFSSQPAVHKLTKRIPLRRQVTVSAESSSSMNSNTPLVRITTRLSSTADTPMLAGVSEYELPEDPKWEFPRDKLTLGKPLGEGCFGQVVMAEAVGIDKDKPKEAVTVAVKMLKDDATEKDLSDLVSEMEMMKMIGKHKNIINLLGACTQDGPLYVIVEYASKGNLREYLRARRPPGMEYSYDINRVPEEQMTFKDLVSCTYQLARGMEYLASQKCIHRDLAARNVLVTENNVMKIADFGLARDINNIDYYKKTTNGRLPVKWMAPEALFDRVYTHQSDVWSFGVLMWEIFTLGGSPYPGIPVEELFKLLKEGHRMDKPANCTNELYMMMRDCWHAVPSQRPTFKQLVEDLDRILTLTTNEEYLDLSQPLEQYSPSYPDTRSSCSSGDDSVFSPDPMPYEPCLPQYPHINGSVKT

| SMILES | IC50 [1] [nM] | IC50 [2] [nM] |
| --- | --- | --- |
| C=C(C)C(=O)Nc1ccc(-c2c(-c3ccc(C(=O)NCC(C)(C)COC)cc3)c3c(N)ncnc3n2C)cc1 [Example 409] | < 100 | ≤ 100 |
| C=C(C)C(=O)Nc1ccc(-c2c(-c3ccc(C(=O)N(C)CC(C)C)cc3)c3c(N)ncnc3n2C)cc1 [Example 410] | < 100 | ≤ 100 |
| C=C(C)C(=O)Nc1ccc(-c2c(-c3ccc(C(=O)N(C)CC4(F)COC4)cc3)c3c(N)ncnc3n2C)cc1 [Example 411] | 250 to 1000 | 250 to 1000 |
| C=C(C)C(=O)Nc1ccc(-c2c(-c3ccc(C(=O)NCC4CCC4)c(F)c3)c3c(N)ncnc3n2C)cc1 [Example 413] | < 100 | ≤ 100 |
| C=C(C)C(=O)Nc1ccc(-c2c(-c3ccc(Oc4cccc(C)n4)cc3)c3c(N)ncnc3n2C2COC2)cc1 [Example 415] | < 100 | ≤ 100 |
| C=C(C)C(=O)Nc1ccc(-c2c(-c3ccc(C(=O)NCC(C)(C)OC)c(F)c3)c3c(N)ncnc3n2C)cc1 [Example 416] | < 100 | ≤ 100 |
| C=C(C)C(=O)Nc1ccc(-c2c(-c3ccc(Oc4cccc(COC)n4)cc3)c3c(N)ncnc3n2C)cc1 [Example 417] | < 100 | ≤ 100 |
| C=C(C)C(=O)Nc1ccc(-c2c(-c3ccc(Oc4cccc(CO)n4)cc3)c3c(N)ncnc3n2C)cc1 [Example 418] | < 100 | ≤ 100 |
| C=C(C)C(=O)Nc1ccc(-c2c(C3=CC[C@@H](C(=O)N4CC5CCC(C5)C4)CC3)c3c(N)ncnc3n2C)cc1 [Example 419] | < 100 | ≤ 100 |
| C=C(C)C(=O)Nc1ccc(-c2c(-c3cc(F)c(Oc4ncc(C)cn4)c(F)c3)c3c(N)ncnc3n2C)cc1 [Example 423] | < 100 | 100 to 250 |
| C=C(C)C(=O)Nc1ccc(-c2c(-c3ccc(Oc4ncc(F)cn4)c(C)c3)c3c(N)ncnc3n2C)c(F)c1 [Example 424] | < 100 | ≤ 100 |
| C=C(C)C(=O)Nc1ccc(-c2c(-c3ccc(Oc4nccc(C)n4)cc3F)c3c(N)ncnc3n2C)cc1 [Example 425] | < 100 | ≤ 100 |
| C=C(C)C(=O)Nc1ccc(-c2c(-c3ccc(Oc4nccc(C)n4)cc3)c3c(N)ncnc3n2C)c(F)c1 [Example 426] | < 100 | ≤ 100 |
| C=C(C)C(=O)Nc1ccc(-c2c(-c3ccc(Oc4ncc(F)cn4)cc3)c3c(N)ncnc3n2C)c(F)c1 [Example 427] | < 100 | ≤ 100 |
| C=C(C)C(=O)Nc1ccc(-c2c(-c3ccc(Oc4ncc(F)cn4)cc3)c3c(N)ncnc3n2C)cc1 [Example 428] | < 100 | ≤ 100 |
| C=C(C)C(=O)Nc1ccc(-c2c(-c3ccc(Oc4ncc(F)cn4)c(C#N)c3)c3c(N)ncnc3n2C)cc1 [Example 429] | 100 to 250 | 100 to 250 |
| C=C(C)C(=O)Nc1ccc(-c2c(-c3ccc(C(=O)N4CCCC4)cc3)c3c(N)ncnc3n2C)c(OC)c1 [Example 433] | < 100 | ≤ 100 |
| C=C(C)C(=O)Nc1ccc(-c2c(-c3ccc(C(=O)N4CCCC4)cc3)c3c(N)ncnc3n2C)c(Cl)c1 [Example 434] | < 100 | ≤ 100 |
| C=C(C)C(=O)Nc1ccc(-c2c(-c3ccc(C(=O)N4CCCC4)cc3)c3c(N)ncnc3n2C)c(C#N)c1 [Example 435] | < 100 | 100 to 250 |
| C=C(C)C(=O)Nc1ccc(-c2c(-c3ccc(C(=O)N4CCCC4)cc3)c3c(N)ncnc3n2C)c(C(F)F)c1 [Example 436] | < 100 | 100 to 250 |
| C=C(C)C(=O)Nc1ccc(-c2c(-c3ccc(C(=O)N4CCC[C@H]4C#N)c(F)c3)c3c(N)ncnc3n2C)cc1 [Example 437] | < 100 | ≤ 100 |
| C=C(C)C(=O)Nc1ccc(-c2c(-c3ccc(Oc4cccc(C)n4)nc3)c3c(N)ncnc3n2C)cc1 [Example 441] | 250 to 1000 | 250 to 1000 |
| C=C(C)C(=O)Nc1ccc(-c2c(-c3ccc(Oc4cccc(C)n4)cc3F)c3c(N)ncnc3n2C)cc1 [Example 442] | < 100 | ≤ 100 |
| C=C(C)C(=O)Nc1ccc(-c2c(-c3ccc(Oc4nccc(C)n4)c(OC)c3)c3c(N)ncnc3n2C)c(F)c1 [Example 444] | < 100 | ≤ 100 |
| C=C(C)C(=O)Nc1ccc(-c2c(-c3ccc(Oc4cccc(C)n4)c(C#N)c3)c3c(N)ncnc3n2C)cc1 [Example 445] | < 100 | ≤ 100 |
| C=C(C)C(=O)Nc1ccc(-c2c(-c3ccc(Oc4nccc(C)n4)c(OC)c3)c3c(N)ncnc3n2C)cc1 [Example 446] | 100 to 250 | ≤ 100 |
| C=C(C)C(=O)Nc1ccc(-c2c(-c3cc(F)c(Oc4nccc(C)n4)c(F)c3)c3c(N)ncnc3n2C)cc1 [Example 447] | < 100 | ≤ 100 |
| C=C(C)C(=O)Nc1ccc(-c2c(-c3ccc(Oc4ncc(F)cn4)c(OC)c3)c3c(N)ncnc3n2C)cc1 [Example 448] | 250 to 1000 | 100 to 250 |

| SMILES | IC50 [1] [nM] | IC50 [2] [nM] |
| --- | --- | --- |
| C=C(C)C(=O)Nc1ccc(-c2c(-c3ccc(Oc4ncc(OC)cn4)c(F)c3)c3c(N)ncnc3n2C)cc1 [Example 449] | 250 to 1000 | 100 to 250 |
| C=C(C)C(=O)Nc1ccc(-c2c(C3=CCC(Oc4ncc(F)cn4)CC3)c3c(N)ncnc3n2C)cc1 (centres unmarked) [Example 458] | 100 to 250 | ≤ 100 |
| C=C(C)C(=O)Nc1ccc(-c2c(-c3ccc(C(=O)N4CCC[C@H]4C#N)cc3)c3c(N)ncnc3n2C)c(F)c1 [Example 459] | < 100 | ≤ 100 |
| C=C(C)C(=O)Nc1ccc(-c2c(-c3ccc(Oc4cccc(C)n4)cn3)c3c(N)ncnc3n2C)cc1 [Example 460] | < 100 | ≤ 100 |
| C=C(C)C(=O)Nc1ccc(-c2c(-c3ccc(C(=O)N4CCC5CC54)cc3)c3c(N)ncnc3n2C)c(F)c1 (centres unmarked) [Example 461] | < 100 | ≤ 100 |
| C=C(C)C(=O)Nc1ccc(-c2c(-c3ccc(C(=O)N4CCCC[C@H]4C)cc3)c3c(N)ncnc3n2C)c(F)c1 [Example 462] | < 100 | ≤ 100 |
| C=C(C)C(=O)Nc1ccc(-c2c(-c3ccc(C(=O)N4CC5CC4C5)cc3)c3c(N)ncnc3n2C)c(F)c1 [Example 463] | < 100 | ≤ 100 |
| C=C(C)C(=O)Nc1ccc(-c2c(-c3ccc(C(=O)N(C)CC4(C#N)CC4)cc3)c3c(N)ncnc3n2C)c(F)c1 [Example 465] | < 100 | ≤ 100 |
| C=C(C)C(=O)Nc1ccc(-c2c(-c3ccc(C(=O)N(C)Cc4nc(C)no4)cc3)c3c(N)ncnc3n2C)c(F)c1 [Example 468] | < 100 | ≤ 100 |
| C=C(C)C(=O)Nc1ccc(-c2c(-c3ccc(C(=O)c4nccc(C)n4)cc3C)c3c(N)ncnc3n2C)cc1 [Example 471] | 100 to 250 | 100 to 250 |
| C=C(C)C(=O)Nc1ccc(-c2c(-c3ccc(Oc4ncc(F)cn4)cn3)c3c(N)ncnc3n2C)cc1 [Example 474] | < 100 | ≤ 100 |
| C=C(C)C(=O)Nc1ccc(-c2c(-c3ccc(Oc4cccc(C)n4)c(CN(C)C)c3)c3c(N)ncnc3n2C)cc1 [Example 475] | 1000 to 100000 | 250 to 1000 |
| Cc1cccc(Oc2ccc(-c3c(-c4ccc(NC#N)cc4)n(C)c4ncnc(N)c34)cc2)n1 [Example 476] | < 100 | ≤ 100 |
| C=C(C)C(=O)Nc1ccc(-c2c(-c3ccc(Oc4nccc(C)n4)c(C)c3)c3c(N)ncnc3n2C)c(F)c1 [Example 479] | < 100 | ≤ 100 |
| C=C(C)C(=O)Nc1ccc(-c2c(-c3ccc(Oc4nccc(C)n4)c(F)c3)c3c(N)ncnc3n2C)c(F)c1 [Example 482] | < 100 | ≤ 100 |
| C=C(C)C(=O)Nc1ccc(-c2c(-c3ccc(Oc4nccc(C)n4)c(C)c3)c3c(N)ncnc3n2C)cc1 [Example 484] | < 100 | ≤ 100 |
| C=C(CN(C)C)C(=O)Nc1ccc(-c2c(-c3ccc(Oc4cccc(C)n4)cc3)c3c(N)ncnc3n2C)cc1 [Example 485] | < 100 | ≤ 100 |
| C=C(C)C(=O)Nc1ccc(-c2c(-c3ccc(C(=O)N4CC5CC5C4)cc3)c3c(N)ncnc3n2C)c(F)c1 (centres unmarked) [Example 487] | < 100 | ≤ 100 |
| C=C(C)C(=O)Nc1ccc(-c2c(-c3ccc(Oc4nccc(C)n4)c(F)c3)c3c(N)ncnc3n2CCO)cc1 [Example 490] | < 100 | ≤ 100 |
| C=C(C)C(=O)Nc1ccc(-c2c(-c3ccc(Oc4cncc(C)n4)c(F)c3)c3c(N)ncnc3n2C)cc1 [Example 492] | < 100 | ≤ 100 |
| C=C(C)C(=O)Nc1ccc(-c2c(-c3ccc(Oc4nccc(C)n4)c(F)c3)c3c(N)ncnc3n2CC)cc1 [Example 494] | < 100 | ≤ 100 |
| C=C(C)C(=O)Nc1ccc(-c2c(-c3cc(C)c(Oc4nccc(C)n4)c(OC)c3)c3c(N)ncnc3n2C)cc1 [Example 497] | 100 to 250 | ≤ 100 |
| C=C(C)C(=O)Nc1ccc(-c2c(-c3ccc(Oc4nccc(CO)n4)c(F)c3)c3c(N)ncnc3n2C)cc1 [Example 498] | < 100 | ≤ 100 |
| C=C(C)C(=O)Nc1ccc(-c2c(-c3ccc(Oc4nccc(C)n4)c(F)c3)c3c(N)ncnc3n2C(C)C)cc1 [Example 499] | < 100 | ≤ 100 |
| C=C(C)C(=O)Nc1ccc(-c2c(-c3ccc(Oc4nccc(C)n4)c(F)c3)c3c(N)ncnc3n2C)c(COC)c1 [Example 500] | < 100 | ≤ 100 |
| C=C(C)C(=O)Nc1ccc(-c2c(-c3ccc(Oc4nccc(C)n4)c(F)c3)c3c(N)ncnc3n2C)c(OC)c1 [Example 502] | < 100 | ≤ 100 |
| C=C(C)C(=O)Nc1ccc(-c2c(-c3ccc(Oc4nccc(C#N)n4)c(F)c3)c3c(N)ncnc3n2C)cc1 [Example 503] | < 100 | ≤ 100 |
